How the values were obtained:
Conditions in all cases: Compound concentration 1.0 uM
[1] = target: Adhesion G-protein coupled receptor F3 (Homo sapiens) (UniProt Q8IZF5); test: RLU of GPR113 at 1.0 µM in the […] PRESTO-Tango GPCRome screen
[2] = target: Mas-related G-protein coupled receptor MRG (Homo sapiens) (UniProt P35410); test: RLU of MAS1L at 1.0 µM in the […] PRESTO-Tango GPCRome screen
[3] = target: Glucagon-like peptide 2 receptor (Homo sapiens) (UniProt O95838); test: RLU of GLP2R at 1.0 µM in the […] PRESTO-Tango GPCRome screen
[4] = target: Prosaposin receptor GPR37 (Homo sapiens) (UniProt O15354); test: RLU of GPR37 at 1.0 µM in the […] PRESTO-Tango GPCRome screen
Chain of Prosaposin receptor GPR37 (Homo sapiens) (O15354 whole entry): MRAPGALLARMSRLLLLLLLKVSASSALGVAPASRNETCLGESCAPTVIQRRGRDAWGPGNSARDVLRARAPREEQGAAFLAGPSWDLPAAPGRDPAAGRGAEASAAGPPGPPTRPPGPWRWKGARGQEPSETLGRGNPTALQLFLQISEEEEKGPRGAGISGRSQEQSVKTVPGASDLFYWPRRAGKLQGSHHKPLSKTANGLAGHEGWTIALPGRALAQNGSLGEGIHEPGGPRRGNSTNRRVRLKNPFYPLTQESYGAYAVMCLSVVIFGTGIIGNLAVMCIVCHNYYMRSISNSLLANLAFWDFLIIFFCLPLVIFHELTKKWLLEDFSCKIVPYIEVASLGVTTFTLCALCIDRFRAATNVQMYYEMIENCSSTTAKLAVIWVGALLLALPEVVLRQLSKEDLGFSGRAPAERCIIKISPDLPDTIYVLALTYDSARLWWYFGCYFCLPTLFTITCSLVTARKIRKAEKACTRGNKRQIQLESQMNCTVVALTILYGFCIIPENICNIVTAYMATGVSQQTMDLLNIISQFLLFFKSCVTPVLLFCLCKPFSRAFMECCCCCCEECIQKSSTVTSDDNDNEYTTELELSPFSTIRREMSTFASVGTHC

[5] = target: Neuropeptide Y receptor type 2 (Homo sapiens) (UniProt P49146); test: RLU of NPY2R at 1.0 µM in the […] PRESTO-Tango GPCRome screen
[6] = target: P2Y purinoceptor 13 (Homo sapiens) (UniProt Q9BPV8); test: RLU of P2RY13 at 1.0 µM in the […] PRESTO-Tango GPCRome screen
[7] = target: G-protein coupled receptor family C group 5 member B (Homo sapiens) (UniProt Q9NZH0); test: RLU of GPRC5B at 1.0 µM in the […] PRESTO-Tango GPCRome screen
[8] = target: Sphingosine 1-phosphate receptor 1 (Homo sapiens) (UniProt P21453); test: RLU of S1PR1 at 1.0 µM in the […] PRESTO-Tango GPCRome screen
Chain of Sphingosine 1-phosphate receptor 1 (Homo sapiens) (P21453 whole entry): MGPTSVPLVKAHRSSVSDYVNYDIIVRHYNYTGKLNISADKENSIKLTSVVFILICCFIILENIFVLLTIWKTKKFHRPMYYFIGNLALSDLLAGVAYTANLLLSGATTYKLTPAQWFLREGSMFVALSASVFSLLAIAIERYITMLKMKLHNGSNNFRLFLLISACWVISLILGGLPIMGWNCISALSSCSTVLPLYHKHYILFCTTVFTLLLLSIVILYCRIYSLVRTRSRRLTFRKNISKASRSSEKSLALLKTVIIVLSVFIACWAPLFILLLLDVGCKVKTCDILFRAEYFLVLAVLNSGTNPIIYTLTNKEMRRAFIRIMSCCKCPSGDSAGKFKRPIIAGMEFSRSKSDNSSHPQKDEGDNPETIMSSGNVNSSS

[9] = target: Orexin receptor type 1 (Homo sapiens) (UniProt O43613); test: RLU of HCTR1 at 1.0 µM in the Aequorin PRESTO-Tango GPCRome screen
Chain of Orexin receptor type 1 (Homo sapiens) (O43613 whole entry, looked up): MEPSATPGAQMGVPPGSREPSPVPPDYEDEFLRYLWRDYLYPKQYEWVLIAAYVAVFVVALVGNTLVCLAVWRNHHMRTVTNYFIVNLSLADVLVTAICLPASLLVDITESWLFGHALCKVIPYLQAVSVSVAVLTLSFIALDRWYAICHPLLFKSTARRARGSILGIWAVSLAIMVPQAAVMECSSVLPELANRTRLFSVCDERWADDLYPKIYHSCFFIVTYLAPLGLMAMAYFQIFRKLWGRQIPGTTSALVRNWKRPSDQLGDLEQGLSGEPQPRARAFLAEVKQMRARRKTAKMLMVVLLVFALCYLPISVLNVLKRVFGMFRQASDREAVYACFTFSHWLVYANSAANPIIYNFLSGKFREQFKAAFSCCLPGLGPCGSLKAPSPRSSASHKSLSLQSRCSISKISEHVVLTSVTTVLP

[10] = target: Vasoactive intestinal polypeptide receptor 2 (Homo sapiens) (UniProt P41587); test: RLU of VIPR2 at 1.0 µM in the […] PRESTO-Tango GPCRome screen
[11] = target: C-X-C chemokine receptor type 2 (Homo sapiens) (UniProt P25025); test: RLU of CXCR2 at 1.0 µM in the […] PRESTO-Tango GPCRome screen
[12] = target: Sphingosine 1-phosphate receptor 5 (Homo sapiens) (UniProt Q9H228); test: RLU of S1PR5 at 1.0 µM in the […] PRESTO-Tango GPCRome screen
[13] = target: G-protein coupled receptor 62 (Homo sapiens) (UniProt Q9BZJ7); test: RLU of GPR62 at 1.0 µM in the […] PRESTO-Tango GPCRome screen
Chain of G-protein coupled receptor 62 (Homo sapiens) (Q9BZJ7 whole entry): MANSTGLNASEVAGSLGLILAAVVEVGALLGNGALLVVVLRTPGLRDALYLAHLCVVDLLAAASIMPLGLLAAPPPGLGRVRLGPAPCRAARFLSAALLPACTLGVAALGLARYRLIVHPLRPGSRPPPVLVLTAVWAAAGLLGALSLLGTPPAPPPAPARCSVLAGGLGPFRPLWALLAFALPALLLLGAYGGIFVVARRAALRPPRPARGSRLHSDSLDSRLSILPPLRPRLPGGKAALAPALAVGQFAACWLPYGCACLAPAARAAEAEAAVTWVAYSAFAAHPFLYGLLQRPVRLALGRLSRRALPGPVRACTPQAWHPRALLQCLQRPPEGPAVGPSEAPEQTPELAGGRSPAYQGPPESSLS

[14] = target: Beta-2 adrenergic receptor (Homo sapiens) (UniProt P07550); test: RLU of ADRB2 at 1.0 µM in the […] PRESTO-Tango GPCRome screen
[15] = target: Motilin receptor (Homo sapiens) (UniProt O43193); test: RLU of MLNR at 1.0 µM in the […] PRESTO-Tango GPCRome screen
Chain of Motilin receptor (Homo sapiens) (O43193 whole entry): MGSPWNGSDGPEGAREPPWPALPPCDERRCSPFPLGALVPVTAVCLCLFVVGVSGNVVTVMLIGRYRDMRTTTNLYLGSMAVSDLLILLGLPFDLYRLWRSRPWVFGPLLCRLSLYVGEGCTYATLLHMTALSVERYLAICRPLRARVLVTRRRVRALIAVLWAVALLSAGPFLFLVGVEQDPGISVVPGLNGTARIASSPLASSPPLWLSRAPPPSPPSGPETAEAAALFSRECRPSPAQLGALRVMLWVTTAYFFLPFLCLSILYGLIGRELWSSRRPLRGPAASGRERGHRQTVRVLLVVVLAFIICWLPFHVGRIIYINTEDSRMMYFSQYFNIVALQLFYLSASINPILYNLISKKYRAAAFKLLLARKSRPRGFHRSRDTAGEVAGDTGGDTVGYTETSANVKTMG

[16] = target: Galanin receptor type 3 (Homo sapiens) (UniProt O60755); test: RLU of GAL3 at 1.0 µM in the […] PRESTO-Tango GPCRome screen
[17] = target: S-geranylgeranyl-glutathione receptor P2RY8 (Homo sapiens) (UniProt Q86VZ1); test: RLU of P2RY8 at 1.0 µM in the […] PRESTO-Tango GPCRome screen
Chain of S-geranylgeranyl-glutathione receptor P2RY8 (Homo sapiens) (Q86VZ1 whole entry): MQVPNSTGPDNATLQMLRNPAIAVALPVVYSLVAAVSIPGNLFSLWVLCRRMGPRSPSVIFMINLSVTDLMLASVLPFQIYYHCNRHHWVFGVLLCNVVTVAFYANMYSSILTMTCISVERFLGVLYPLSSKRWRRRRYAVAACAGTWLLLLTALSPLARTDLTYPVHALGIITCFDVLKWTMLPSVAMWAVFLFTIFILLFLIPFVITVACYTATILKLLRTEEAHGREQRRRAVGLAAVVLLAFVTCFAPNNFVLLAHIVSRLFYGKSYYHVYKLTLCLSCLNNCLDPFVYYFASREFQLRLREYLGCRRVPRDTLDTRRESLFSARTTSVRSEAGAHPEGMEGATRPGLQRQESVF

[18] = target: Neuropeptides B/W receptor type 1 (Homo sapiens) (UniProt P48145); test: RLU of NPBW1 at 1.0 µM in the […] PRESTO-Tango GPCRome screen
Chain of Neuropeptides B/W receptor type 1 (Homo sapiens) (P48145 whole entry): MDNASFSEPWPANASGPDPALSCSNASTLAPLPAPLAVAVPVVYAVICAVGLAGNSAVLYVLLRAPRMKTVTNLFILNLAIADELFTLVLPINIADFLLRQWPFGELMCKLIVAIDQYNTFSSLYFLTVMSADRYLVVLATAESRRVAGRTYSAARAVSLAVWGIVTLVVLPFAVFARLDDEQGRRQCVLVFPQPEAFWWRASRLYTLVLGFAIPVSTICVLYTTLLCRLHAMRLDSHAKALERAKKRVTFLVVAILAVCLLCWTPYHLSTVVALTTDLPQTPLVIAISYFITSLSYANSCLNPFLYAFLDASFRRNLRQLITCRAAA

[19] = target: G-protein coupled receptor 83 (Homo sapiens) (UniProt Q9NYM4); test: RLU of GPR83 at 1.0 µM in the […] PRESTO-Tango GPCRome screen
Chain of G-protein coupled receptor 83 (Homo sapiens) (Q9NYM4 whole entry): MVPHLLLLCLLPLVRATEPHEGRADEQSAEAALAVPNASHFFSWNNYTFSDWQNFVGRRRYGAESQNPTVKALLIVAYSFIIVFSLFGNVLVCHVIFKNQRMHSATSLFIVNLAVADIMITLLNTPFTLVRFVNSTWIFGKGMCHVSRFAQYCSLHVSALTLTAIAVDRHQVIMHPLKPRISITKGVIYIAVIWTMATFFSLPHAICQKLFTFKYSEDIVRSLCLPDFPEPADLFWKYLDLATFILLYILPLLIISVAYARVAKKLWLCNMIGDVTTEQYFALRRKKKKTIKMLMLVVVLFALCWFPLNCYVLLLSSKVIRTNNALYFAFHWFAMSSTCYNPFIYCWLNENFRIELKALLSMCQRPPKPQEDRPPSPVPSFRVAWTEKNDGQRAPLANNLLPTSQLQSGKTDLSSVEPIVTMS

[20] = target: Prostaglandin D2 receptor 2 (Homo sapiens) (UniProt Q9Y5Y4); test: RLU of GPR44 at 1.0 µM in the […] PRESTO-Tango GPCRome screen
[21] = target: Prokineticin receptor 2 (Homo sapiens) (UniProt Q8NFJ6); test: RLU of PK2 at 1.0 µM in the […] PRESTO-Tango GPCRome screen
Chain of Prokineticin receptor 2 (Homo sapiens) (Q8NFJ6 whole entry): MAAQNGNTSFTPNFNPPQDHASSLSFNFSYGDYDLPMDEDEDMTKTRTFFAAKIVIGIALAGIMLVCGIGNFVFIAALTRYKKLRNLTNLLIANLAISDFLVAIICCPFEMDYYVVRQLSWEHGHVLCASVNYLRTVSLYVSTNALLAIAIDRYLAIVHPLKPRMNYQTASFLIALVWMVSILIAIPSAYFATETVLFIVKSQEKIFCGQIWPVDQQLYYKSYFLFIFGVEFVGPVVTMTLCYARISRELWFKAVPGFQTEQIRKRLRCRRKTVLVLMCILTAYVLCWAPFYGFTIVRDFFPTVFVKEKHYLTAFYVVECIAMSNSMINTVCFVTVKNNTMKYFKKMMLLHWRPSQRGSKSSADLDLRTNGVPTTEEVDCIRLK

[22] = target: Thromboxane A2 receptor (Homo sapiens) (UniProt P21731); test: RLU of TBXA2R at 1.0 µM in the […] PRESTO-Tango GPCRome screen
[23] = target: G-protein coupled receptor family C group 5 member C (Homo sapiens) (UniProt Q9NQ84); test: RLU of GPRC5C at 1.0 µM in the […] PRESTO-Tango GPCRome screen
[24] = target: Alpha-2B adrenergic receptor (Homo sapiens) (UniProt P18089); test: RLU of ADRA2B at 1.0 µM in the […] PRESTO-Tango GPCRome screen
[25] = target: Proteinase-activated receptor 2 (Homo sapiens) (UniProt P55085); test: RLU of F2RL1 at 1.0 µM in the […] PRESTO-Tango GPCRome screen
[26] = target: Probable G-protein coupled receptor 152 (Homo sapiens) (UniProt Q8TDT2); test: RLU of GPR152 at 1.0 µM in the […] PRESTO-Tango GPCRome screen
[27] = target: Probable G-protein coupled receptor 132 (Homo sapiens) (UniProt Q9UNW8); test: RLU of G2A at 1.0 µM in the […] PRESTO-Tango GPCRome screen
[28] = target: Free fatty acid receptor 4 (Homo sapiens) (UniProt Q5NUL3); test: RLU of GPR120 at 1.0 µM in the […] PRESTO-Tango GPCRome screen
Chain of Free fatty acid receptor 4 (Homo sapiens) (Q5NUL3 whole entry): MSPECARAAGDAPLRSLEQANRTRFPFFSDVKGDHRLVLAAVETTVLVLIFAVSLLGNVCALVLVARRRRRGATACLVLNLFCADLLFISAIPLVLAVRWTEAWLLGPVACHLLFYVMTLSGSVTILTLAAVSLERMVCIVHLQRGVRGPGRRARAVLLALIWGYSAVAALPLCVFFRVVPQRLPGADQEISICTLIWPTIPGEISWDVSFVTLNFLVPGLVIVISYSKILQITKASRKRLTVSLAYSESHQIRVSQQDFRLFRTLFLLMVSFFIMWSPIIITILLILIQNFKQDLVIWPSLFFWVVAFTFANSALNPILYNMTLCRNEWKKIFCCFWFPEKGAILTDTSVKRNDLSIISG

[29] = target: Metabotropic glutamate receptor 1 (Homo sapiens) (UniProt Q13255); test: RLU of GRM1 at 1.0 µM in the Aequorin PRESTO-Tango GPCRome screen
[30] = target: Somatostatin receptor type 1 (Homo sapiens) (UniProt P30872); test: RLU of SSTR1 at 1.0 µM in the […] PRESTO-Tango GPCRome screen
Chain of Somatostatin receptor type 1 (Homo sapiens) (P30872 whole entry): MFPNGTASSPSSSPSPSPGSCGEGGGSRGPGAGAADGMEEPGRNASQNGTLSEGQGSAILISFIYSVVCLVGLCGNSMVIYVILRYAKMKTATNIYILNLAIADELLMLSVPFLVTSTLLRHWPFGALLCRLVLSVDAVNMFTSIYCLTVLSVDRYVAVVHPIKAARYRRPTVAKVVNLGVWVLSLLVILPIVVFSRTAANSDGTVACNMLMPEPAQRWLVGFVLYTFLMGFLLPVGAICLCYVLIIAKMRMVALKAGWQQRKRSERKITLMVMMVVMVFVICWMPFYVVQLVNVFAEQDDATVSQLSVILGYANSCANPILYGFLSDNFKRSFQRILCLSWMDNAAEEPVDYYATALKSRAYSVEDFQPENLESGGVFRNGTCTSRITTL

[31] = target: Extracellular calcium-sensing receptor (Homo sapiens) (UniProt P41180); test: RLU of CASR at 1.0 µM in the […] PRESTO-Tango GPCRome screen
[32] = target: Hydroxycarboxylic acid receptor 1 (Homo sapiens) (UniProt Q9BXC0); test: RLU of HCA1 at 1.0 µM in the Aequorin PRESTO-Tango GPCRome screen
[33] = target: C-X-C chemokine receptor type 1 (Homo sapiens) (UniProt P25024); test: RLU of CXCR1 at 1.0 µM in the […] PRESTO-Tango GPCRome screen
Chain of C-X-C chemokine receptor type 1 (Homo sapiens) (P25024 whole entry): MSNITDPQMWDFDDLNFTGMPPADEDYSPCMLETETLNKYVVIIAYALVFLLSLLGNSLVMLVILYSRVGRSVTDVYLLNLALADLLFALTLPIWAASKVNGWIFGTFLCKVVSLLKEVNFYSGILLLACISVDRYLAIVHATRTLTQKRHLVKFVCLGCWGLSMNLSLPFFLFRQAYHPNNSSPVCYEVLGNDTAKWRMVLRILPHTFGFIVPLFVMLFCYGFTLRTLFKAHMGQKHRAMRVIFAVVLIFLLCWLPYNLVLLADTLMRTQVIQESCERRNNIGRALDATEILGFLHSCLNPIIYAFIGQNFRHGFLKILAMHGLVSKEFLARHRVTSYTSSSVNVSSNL

[34] = target: Metabotropic glutamate receptor 2 (Homo sapiens) (UniProt Q14416); test: RLU of GRM2 at 1.0 µM in the Aequorin PRESTO-Tango GPCRome screen
[35] = target: 5-hydroxytryptamine receptor 7 (Homo sapiens) (UniProt P34969); test: RLU of HTR7 at 1.0 µM in the […] PRESTO-Tango GPCRome screen

RLU [1]: 387 | RLU [2]: 2610 | RLU [3]: -2690 | RLU [4]: -1510 | RLU [5]: 559 | RLU [6]: 10100 | RLU [7]: -3640 | RLU [8]: 11000 | RLU [9]: -2840 | RLU [10]: -824 | RLU [11]: -473 | RLU [12]: 2920 | RLU [13]: 477000 | RLU [14]: 4580 | RLU [15]: -570 | RLU [16]: -1500 | RLU [17]: 1330 | RLU [18]: 4940 | RLU [19]: 834 | RLU [20]: -285 | RLU [21]: -566 | RLU [22]: 233 | RLU [23]: 3560 | RLU [24]: 17900 | RLU [25]: -1270 | RLU [26]: -70 | RLU [27]: -2780 | RLU [28]: 1030 | RLU [29]: -511 | RLU [30]: -1070 | RLU [31]: 4400 | RLU [32]: 583 | RLU [33]: 812 | RLU [34]: -1460 | RLU [35]: -1000
SMILES: CCCCC(=O)N1CC2(C1)CN(c1ccccc1-c1nnn[nH]1)C2
